Measurements from patent publication US20240207202A1, “COMBINATION THERAPIES TARGETING MITOCHONDRIAL BIOGENESIS FOR CANCER THERAPY” (The Wistar Institute of Anatomy and Biology, priority 2015, published 2024).

Columns and labels:
WM4265-2 cells = assay: Tumor volume of WM4265-2 xenografts; assay type: in vivo, mice; conditions: WM4265-2 xenografts (immunotherapy-progressed patient PDX line); Gamitrinib 10 mg/kg
Protocol: Mice were xenografted with WM4265-2 cells until tumors were established and then treated with Gamitrinib (10 mg/kg).

[1] = test system: mitochondrial respiratory chain complex subunits; assay: Expression of mitochondrial respiratory chain complex subunits in WM9 cells (qRT-PCR, RPPA, immunoblot); assay type: cell-based, human
Protocol: One μg total mRNA was reverse transcribed using a Maxima First Strand cDNA Synthesis Kit for qRT-PCR (Thermo Fisher). Fast SYBR® Green Master Mix (Life Technologies) was used with cDNA template and primers to evaluate the expression of target genes and GAPDH. Primers used were purchased from Integrated DNA Technologies. Amplifications were performed using an Applied Biosystems® 7500 Real-Time PCR System (Life Technologies). All experiments were performed in triplicate. Expression ratios of controls were normalized to 1. Please see Extended Experimental Procedures for the list of PCR primer sequences. The raw data of gene expression microarrays generated from Illumina Chips were normalized, background-corrected and summarized using the R package “lumi” (Du et al., 2008). […] To reduce false positives, the unexpressed probes were removed. The R package “limma” (Smyth, 2004, 2005) was employed for gene differential expression analysis, followed by multiple test correction by the Benjamini and Hochberg procedure (Benjamini and Hochberg, 1995). […] We also conducted GSEA as previously reported (Subramanian et al., 2005). For GSEA, we analyzed gene sets obtained from the Molecular Signatures Database (broadinstitute.org/gsea/msigdb/). The same differential expression analysis method was applied to RPPA data. Cells were washed with ice-cold PBS containing 100 μM Na3VO4 and scraped off culture dishes. After centrifugation, cell pellets were lysed in buffer containing 10 mM Tris-HCl, pH 7.8, 150 mM NaCl, 1 mM EDTA, 1% Nonidet P-40, 1 mM Na3VO4 and protease inhibitors (Roche complete protease inhibitor tablets). Lysates were cleared by micro-centrifugation and protein concentrations were determined with Protein Assay Dye Reagent Concentrate (Bio-Rad). For western blots, 25 μg of each lysate were run on 15-well 10% or 12% SDS-PAGE gels and transferred onto nitrocellulose membranes using a dye fast Trans-BlotR Turbo™ transfer system (Bio-Rad). Blots were blocked in SEA BLOCK Blocking Buffer (Thermo Scientific) diluted with 1×TBS at 1:1 ratio at room temperature for 1 h, incubated overnight with primary antibody at 4° C., stained with secondary antibodies conjugated to IRDye® Infrared Dyes (LI-COR Biosciences) and then visualized using an Odyssey flatbed scanner (LI-COR Biosciences).

ATP production = ATP production in WM9 cells; assay type: cell-based, human; conditions: WM9, 72 h, Gamitrinib combined with PLX4720 10 μM
Protocol: Cells were seeded into Black Plate, Clear Bottom 96 Well Assay Plates (Corning Inc., cat. #3603) at a density of 5,000 cells/well. Immediately following the drug treatment, culture media were removed. Cells in each well were incubated with a mixture of reagents containing 50 μl DPBS, 50 μl reconstituted CellTiter-Glo® Assay and 0.5 μl CyQUANT for 10 min in the dark. Both ATP luminescence and CyQUANT fluorescence were recorded with a BioTek Multi-Mode Microplate Reader. The ATP production per cell was calculated as the ratio of ATP luminescence over CyQUANT fluorescence.

M-MITF = M-MITF gene expression by qRT-PCR in WM9 cells; assay type: cell-based, human; conditions: WM9, 48 h, Gamitrinib 1 μM added to PLX4720 10 μM and PD0325901 1 μM
Protocol: One μg total mRNA was reverse transcribed using a Maxima First Strand cDNA Synthesis Kit for qRT-PCR (Thermo Fisher). Fast SYBR® Green Master Mix (Life Technologies) was used with cDNA template and primers to evaluate the expression of target genes and GAPDH. Primers used were purchased from Integrated DNA Technologies. Amplifications were performed using an Applied Biosystems® 7500 Real-Time PCR System (Life Technologies). All experiments were performed in triplicate. Expression ratios of controls were normalized to 1. Please see Extended Experimental Procedures for the list of PCR primer sequences.

[2] = test system: LC3B-II, phospho-S6, phospho-AMPKα; assay: RPPA and immunoblotting of autophagy and metabolic stress markers in WM9 cells; assay type: cell-based, human
Excerpt: The raw data of gene expression microarrays generated from Illumina Chips were normalized, background-corrected and summarized using the R package “lumi” (Du et al., 2008). Probes below background level (detection P-value <0.01) were excluded and differential expression was identified with Bayes-adjusted variance analysis using the Bioconductor Limma package. To reduce false positives, the unexpressed probes were removed. The R package “limma” (Smyth, 2004, 2005) was employed for gene differential expression analysis, followed by multiple test correction by the Benjamini and Hochberg procedure (Benjamini and Hochberg, 1995). […] We also conducted GSEA as previously reported (Subramanian et al., 2005). For GSEA, we analyzed gene sets obtained from the Molecular Signatures Database (broadinstitute.org/gsea/msigdb/). The same differential expression analysis method was applied to RPPA data.
Cells were washed with ice-cold PBS containing 100 μM Na3VO4 and scraped off culture dishes. After centrifugation, cell pellets were lysed in buffer containing 10 mM Tris-HCl, pH 7.8, 150 mM NaCl, 1 mM EDTA, 1% Nonidet P-40, 1 mM Na3VO4 and protease inhibitors (Roche complete protease inhibitor tablets). Lysates were cleared by micro-centrifugation and protein concentrations were determined with Protein Assay Dye Reagent Concentrate (Bio-Rad). […]

Gamitrinib
tumor growth (WM4265-2 cells): significantly inhibited tumor growth | expression of mitochondrial respiratory chain complex subunits (SDHA, SDHB, UQCRC2, ATP5H, cyclophilin D) induced by MAPK inhibitors ([1]; WM9, 72 h, Gamitrinib 1 μM with PLX4720 10 μM or PLX4720 and PD0325901 1 μM, RPPA): significant reduction | 5 mitochondrial respiratory chain complex subunits ([1]; WM9, immunoblotting, 72 h time course): down-regulated | ATP production (ATP production): significantly decreased the ATP production | M-MITF expression up-regulated by MAPK pathway inhibitors (M-MITF): further down-regulated | LC3B-II, phospho-S6 and phospho-AMPKα [2]: down-regulated LC3B-II and phospho-S6 and up-regulated phospho-AMPKα
